The results in this text go back to patent US4087432A, “1H-imidazo(4,5-b)pyridine compounds” (Eli Lilly and Company, priority 1975, dated 1978).

The subject of test [1] is Crabgrass. Kind of test: Postemergent injury rating, crabgrass. Format: in vivo, large crabgrass. Also on record: key: injury rating scale, 4 = death. The procedure: (§1) Various of the compounds to be employed as active agent in accordance with the present invention were evaluated for preemergent application to various species of plants. In this evaluation, a soil was prepared consisting of one part masonry sand and one part shredded top soil blended together in a cement mixer. One gallon of this soil was placed in a 25 × 35 cm. galvanized flat and was patted down with a bench brush until level. A three-row marker was used to make 21/2 cm. deep furrows in approximately two-fifths of the flat. Crop seeds consisting of four kernels of corn, five cotton seeds and five soybean seeds were placed in these furrows. A four-row template was then placed on the remaining soil and the indicated approximate numbers of each of the following seeds were planted, one species to each section: foxtail (millet), 80-100 seeds; velvetleaf (40-50 seeds); rough pigweed (150-250 seeds); and large crabgrass (100-150 seeds).
(§2) Sufficient soil was added to cover the entire flat. Thus, the weed seeds were covered to a depth of about 6 mm. and the crop seeds were covered to a depth of about 3 cm.
(§3) In assaying the effect of the composition as preemergent herbicides, a flat prepared as above, taken either on the day of planting or on the next day, was placed in a chamber equipped with a turntable and an air exhaust. The herbicidal composition, either a spray-type emulsion or a wettable powder, was applied to the flat with a modified DeVilbiss atomizer hooked to an air source. Twelve and one-half milliliters of the composition under test were applied to each flat either on the day of planting or the succeeding day. Injury ratings and observations as to type of injury were made eleven to twelve days after treatment. The injury rating scale used was as follows:
(§4) 4--death When more than one determination was carried out at a given rate, an average value was calculated for the injury rating. Each compound evaluated was formulated as a spray by one of the following procedures. In one method the particular compound was wetted by grinding in a mortar with one part of polyoxyethylene sorbitan monolaurate. Five hundred parts of water were added slowly to the resultant creamy paste to give an aqueous dispersion with a surfactant concentration of 0.2 percent. This dispersion was entirely satisfactory for spray application. In a second procedure the compound was dissolved in one volume of acetone, and the acetone solution was diluted with nineteen volumes of water containing 0.1 percent of polyoxyethylene sorbitan monolaurate.
(§5) Representative compounds of the present invention were evaluated for postemergent application to plants including corn and several weed species. The evaluation was carried out in accordance with the procedures of Examples 49-52 except that the test solutions were applied about 9-12 days after the preparation and seeding of the flats.

The test system of test [2] is Corn. Kind of test: Postemergent injury rating, corn. In kind it is in vivo. Details: key: injury rating scale, 4 = death. The procedure: as §1, §2, §3, §4, §5
Test [3] has as its system Velvet Leaf. Kind of test: Postemergent injury rating, velvetleaf. Format: in vivo. Here is the method:
as §1, §2, §3, §4, §5

Test [4] has as its system Pigweed. The experiment in a line: Postemergent injury rating, pigweed. In kind it is in vivo, rough pigweed. Details: key: injury rating scale, 4 = death. Here is the method:
as §1, §2, §3, §4, §5

In test [5] the test system is Foxtail. Kind of test: Postemergent injury rating, foxtail. Format: in vivo, foxtail (millet). Also on record: key: injury rating scale, 4 = death. Here is the method: as §1, §2, §3, §4, §5
In test [6] the test system is Cotton. The experiment in a line: Preemergent injury rating, cotton. Format: in vivo. Also on record: key: injury rating scale on which 4 = death. Here is the method: as §1, §2, §3, §4
(§6) In the following table setting forth the results of the evaluation, column 1 gives the name of the compound under test; column 2, the rate in pounds per acre at which the compound was applied to the test flat; and the remaining columns, the injury to the particular plant seeds or seedlings as measured by the foregoing scale.

Test [7] deals with Soybean. Kind of test: Postemergent injury rating, soybean. Format: in vivo. The procedure: as §1, §2, §3, §4, §5
Test [8] concerns Corn. The experiment in a line: Preemergent injury rating, corn. Format: in vivo. Details: key: injury rating scale on which 4 = death. Here is the method: as §1, §2, §3, §4, §6
Test [9] relates to Crabgrass. Kind of test: Preemergent injury rating, crabgrass. Details: key: injury rating scale on which 4 = death. In kind it is in vivo, large crabgrass. Here is the method: as §1, §2, §3, §4, §6
Test [10] concerns Cotton. The experiment in a line: Postemergent injury rating, cotton. Format: in vivo. The procedure:
as §1, §2, §3, §4, §5

Test [11] concerns Soybean. Kind of test: Preemergent injury rating, soybean. Format: in vivo. Details: key: injury rating scale on which 4 = death. Here is the method: as §1, §2, §3, §4, §6
Test [12] concerns Foxtail. Kind of test: Preemergent injury rating, foxtail. Format: in vivo, foxtail (millet). Details: key: injury rating scale on which 4 = death. The procedure:
as §1, §2, §3, §4, §6

The test system of test [13] is Velvet Leaf. Kind of test: Preemergent injury rating, velvetleaf. In kind it is in vivo. Also on record: key: injury rating scale on which 4 = death. Conditions: 2 lbs/acre. The procedure:
as §1, §2, §3, §4, §6

The test system of test [14] is Pigweed. The experiment in a line: Preemergent injury rating, pigweed. Format: in vivo, rough pigweed. Also on record: key: injury rating scale on which 4 = death. Conditions: 2 lbs/acre. Here is the method:
as §1, §2, §3, §4, §6

`Nc1c(Br)nc2nc(C(F)(F)F)n(O)c2c1Br` [5,7-dibromo-6-amino-1-hydroxy-2-(trifluoromethyl)-1H-imidazo(4,5-b)pyridine]: the “Injury Rating, Crabgrass” value with Crabgrass [1] (8 lbs/acre) is recorded as 3. Besides, in the test with Corn [2] (8 lbs/acre), the “Injury Rating, Corn” value amounted to 1. For the same compound, the “Injury Rating, Velvet Leaf” value in the test with Velvet Leaf [3] (8 lbs/acre) came to 2. Further, in the test with Pigweed [4] (8 lbs/acre), the “Injury Rating, Pigweed” value is recorded as 3. Further, the “Injury Rating, Foxtail” value in the test with Foxtail [5] (8 lbs/acre) is listed as 3.
Turning to `On1c(C(F)(F)F)nc2ncc(C(F)(F)F)cc21` [1-hydroxy-2,6-bis(trifluoromethyl)-1H-imidazo(4,5-b)pyridine], the “Injury Rating, Crabgrass” value with Crabgrass [1] (1 lbs/acre), in the test on Crabgrass [1] (2 lbs/acre), in the test on Crabgrass [1] (4 lbs/acre), in the test with Crabgrass [1] (8 lbs/acre) and in the test on Crabgrass [9] (8 lbs/acre) was 4 throughout. Moreover, the “Injury Rating, Corn” value in the test on Corn [2] (1 lbs/acre) turned out to be 1; with Corn [2] (2 lbs/acre) it was 4; in the test on Corn [2] (4 lbs/acre), 4; in the test on Corn [2] (8 lbs/acre), 4; in the test on Corn [8] (8 lbs/acre), 3. The “Injury Rating, Velvet Leaf” value in the test with Velvet Leaf [3] (1 lbs/acre), with Velvet Leaf [3] (2 lbs/acre), in the test with Velvet Leaf [3] (4 lbs/acre) and in the test with Velvet Leaf [3] (8 lbs/acre) was 4 in each case. Also, the “Injury Rating, Cotton” value in the test with Cotton [6] (8 lbs/acre), with Cotton [10] (1 lbs/acre), in the test with Cotton [10] (2 lbs/acre), with Cotton [10] (4 lbs/acre) and in the test with Cotton [10] (8 lbs/acre) was 4 in each case. Moreover, the “Injury Rating, Soybean” value in the test on Soybean [7] (1 lbs/acre) was determined as 4; in the test with Soybean [7] (2 lbs/acre), 4; with Soybean [7] (4 lbs/acre) it was 4; in the test with Soybean [7] (8 lbs/acre) it was 4; in the test with Soybean [11] (8 lbs/acre), 3. Also, the “Injury Rating, Pigweed” value in the test on Pigweed [4] (1 lbs/acre), in the test with Pigweed [4] (2 lbs/acre), in the test on Pigweed [4] (4 lbs/acre) and in the test with Pigweed [4] (8 lbs/acre) was 4 each time. In addition, the “Injury Rating, Foxtail” value in the test with Foxtail [5] (1 lbs/acre), in the test on Foxtail [5] (2 lbs/acre), in the test on Foxtail [5] (4 lbs/acre), in the test on Foxtail [5] (8 lbs/acre) and with Foxtail [12] (8 lbs/acre) was 4 in each case.
Take `CS(=O)(=O)c1cnc2nc(C(F)(F)F)n(O)c2c1` [6-(methylsulfonyl)-1-hydroxy-2-(trifluoromethyl)-1H-imidazo(4,5-b)pyridine]: the “Injury Rating, Crabgrass” value with Crabgrass [1] (1 lbs/acre), in the test on Crabgrass [1] (2 lbs/acre) and in the test with Crabgrass [9] (2 lbs/acre) was 2 throughout. Further, the “Injury Rating, Corn” value is reported as 1 with Corn [2] (1 lbs/acre), 2 in the test with Corn [2] (2 lbs/acre) and 0 in the test on Corn [8] (2 lbs/acre). Moreover, the “Injury Rating, Cotton” value in the test with Cotton [6] (2 lbs/acre) was found to be 0; in the test with Cotton [10] (1 lbs/acre), 3; in the test on Cotton [10] (2 lbs/acre) it was 4. Further, the figures for the “Injury Rating, Soybean” value in the test on Soybean [7] (1 lbs/acre), with Soybean [7] (2 lbs/acre) and in the test on Soybean [11] (2 lbs/acre) were 3, 4 and 2, respectively. Besides, the entries for the “Injury Rating, Pigweed” value in the test with Pigweed [4] (1 lbs/acre), with Pigweed [4] (2 lbs/acre) and with Pigweed [14] were 3, 4 and 3, respectively. In the test on Velvet Leaf [13], the “Injury Rating, Velvet Leaf” value was 2. The “Injury Rating, Foxtail” value worked out at 4 in the test with Foxtail [5] (1 lbs/acre), 4 with Foxtail [5] (2 lbs/acre) and 2 in the test on Foxtail [12] (2 lbs/acre).
